Data reported in patent US10323000B2, “Indole derivatives and their use in neurodegenerative diseases” (priority 2014, dated 2019).
Read-outs that look alike come from different tables or passages of the source.

Columns and labels:
[1] = target: human P2X7 receptor (Homo sapiens (Human), UniProt Q99572); test: Pore permeation assay (YO PRO dye uptake); assay type: cell-based
Experimental: Agonist-induced pore formation was determined by measuring cellular uptake of YO PRO fluorescence dye in HEK293 transfected with human P2X7 receptor. A HEK293 cell over expressing human P2X7 was harvested using HQTase reagent to detach the cells from T75 cm flask. The harvested cells are centrifuged @1200 rpm for 5 min at room temperature. The viability of cells was determined by Trypan blue dye and the cells are plated @10,000 cell/well in 50 ul volume in a 384W BD Poly lysine coated plate and incubated overnight at 37 C. […] The plate was centrifuged at 1000 rpm for 5 seconds and incubated at room temperature for 30 minutes. The uptake of YO PRO dye into the cells was measured using Envision Fluorescence plate reader instrument (Perkin Elmer).

[2] = target: P2X7 (IL-1β release from THP-1 cells) (Homo sapiens (Human), UniProt Q99572); test: IL-1β release assay; assay type: cell-based
Experimental: IL-1β release assay: The activation of P2X7 by ATP leads to a fast transient activation of cells resulting in influx of Ca^2+ followed by conversion of pro-IL-1β to active IL-1β. The functional activity of P2X7 compounds was measured by the release of mature […] in the culture medium of THP-1 cells, detected by sandwich ELISA. […] THP-1 cells were harvested from the flask in 50 ml by centrifugation for 3 min at 100 g. The cells were resuspended to 2×10^5 cells/ml in medium supplemented with 0.5 μM PMA and incubated. The cells were washed and resuspended to 1.5×10^5 cells/ml in medium complemented with 10 ng/ml LPS, and the cells were primed for 4 h at 37° C., 5% CO2. After addition of 20 μL of prediluted test compounds, blank, standard and control reagents, cells were incubated for a further 20 min at 37° C. and stimulated with 0.8 mM BzATP for 30 minutes. The cells were centrifuged, supernatant was collected and the presence of mature IL-1β was detected using Dual human IL-1b kit following manufacturer's instruction. The tetrahydrobenzodiazepine analogs effectively modulated the activity of P2X7 in the cells as measured by the levels of pro-inflammatory cytokine IL-1β, which is released by the activation of P2X7 receptor.

[3] = HEK293 transfected with human P2X7, BzATP 10 uM, YO PRO dye uptake, read-out: hP2X7 IC50
[4] = THP-1 cells, LPS primed, 0.8 mM BzATP, mature IL-1β by sandwich ELISA, read-out: hTHP-1/IL-ib IC50

Sequence of human P2X7 receptor (Q99572 whole entry): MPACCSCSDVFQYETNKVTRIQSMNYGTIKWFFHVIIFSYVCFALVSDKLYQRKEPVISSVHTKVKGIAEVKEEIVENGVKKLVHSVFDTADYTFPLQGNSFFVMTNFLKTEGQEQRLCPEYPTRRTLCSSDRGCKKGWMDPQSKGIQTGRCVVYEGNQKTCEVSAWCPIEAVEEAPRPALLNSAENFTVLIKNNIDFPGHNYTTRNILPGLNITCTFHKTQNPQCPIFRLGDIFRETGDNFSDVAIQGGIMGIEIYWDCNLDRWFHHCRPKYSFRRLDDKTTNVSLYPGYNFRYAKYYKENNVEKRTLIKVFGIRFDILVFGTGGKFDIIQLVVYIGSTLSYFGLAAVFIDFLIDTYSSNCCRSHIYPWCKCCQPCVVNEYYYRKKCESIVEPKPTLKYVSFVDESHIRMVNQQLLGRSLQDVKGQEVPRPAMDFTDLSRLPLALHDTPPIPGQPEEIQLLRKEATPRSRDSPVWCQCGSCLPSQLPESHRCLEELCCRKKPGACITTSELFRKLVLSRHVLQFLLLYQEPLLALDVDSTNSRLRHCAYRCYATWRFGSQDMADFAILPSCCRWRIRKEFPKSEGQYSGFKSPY
Sequence of P2X7 (IL-1β release from THP-1 cells) (Q99572 whole entry): as above

Row | Structure (SMILES) | IC50 [1, 3] [µM] | IC50 [2, 4] [µM] | IC50 [1] [µM] | IC50 [2] [µM]
1 | O=C(NCCC1(O)CCCC1)c1cn(C2COC2)c2cccc(Cl)c12 [Compound 45, 4-chloro-N-(2-(1-hydroxycyclopentyl)ethyl)-1-(oxetan-3-yl)-1H-indole-3-carboxamide] | > 1 | > 1 |  | 
2 | O=C(NCCC1CCCC1)c1cn(C2CCOC2)c2cccc(Cl)c12 (stereo not shown) [Compound 108, 4-Chloro-1-(tetrahydro-furan-3-yl)-1H-indole-3-carboxylic acid (2-cyclopentyl-ethyl)-amide] |  |  | 0.01 to 0.1 | 0.101 to 0.5
3 | CC1CC(F)(F)CC(O)(CNC(=O)c2cn(CC3CCCO3)c3cccc(Cl)c23)C1 (stereo not shown) [Compound 138, 4-chloro-N-((3,3-difluoro-1-hydroxy-5-methylcyclohexyl)methyl)-1-((tetrahydrofuran-2-yl)methyl)-1H-indole-3-carboxamide] |  |  | 0.101 to 0.5 | 0.101 to 0.5
4 | O=C(NC[C@@]1(O)CCCC(F)(F)C1)c1cn(CCN2CCCC2)c2cccc(Cl)c12 [Compound 176, (R)-4-chloro-N-((3,3-difluoro-1-hydroxycyclohexyl)methyl)-1-(2-(pyrrolidin-1-yl)ethyl)-1H-indole-3-carboxamide] | > 1 | > 1 |  | 
5 | O=C(NCC1(O)CCCC(F)(F)C1)c1cn(CC2CNC2)c2cccc(Cl)c12 (stereo not shown) [Compound 125] |  |  | 0.01 to 0.1 | 0.01 to 0.1
6 | O=C(NCC1CCC(F)(F)CC1)c1cn(CC2CCCO2)c2cccc(Cl)c12 (stereo not shown) [Compound 144, 4-chloro-N-((4,4-difluorocyclohexyl)methyl)-1-((tetrahydrofuran-2-yl)methyl)-1H-indole-3-carboxamide] |  |  | 0.01 to 0.1 | 0.101 to 0.5
7 | COCCn1cc(C(=O)NCCc2ccc(F)cc2Cl)c2c(Cl)cccc21 [Compound 34, 4-Chloro-1-(2-methoxy-ethyl)-1H-indole-3-carboxylic acid [2-(4-fluoro-2-chloro-phenyl)-ethyl]-amide] |  |  | 0.101 to 0.5 | 0.101 to 0.5
8 | O=C(NCC1CCCC(F)(F)C1)c1cn(C2COC2)c2cccc(Cl)c12 (racemic) [Compound 69, 4-chloro-N-((3,3-difluorocyclohexyl)methyl)-1-(oxetan-3-yl)-1H-indole-3-carboxamide] |  |  | 0.01 to 0.1 | 0.101 to 0.5
9 | O=C(NC[C@]1(O)CCCC(F)(F)C1)c1cn(C2COC2)c2cccc(Cl)c12 [Compound 85, (S)-4-chloro-N-((3,3-difluoro-1-hydroxycyclohexyl)methyl)-1-(oxetan-3-yl)-1H-indole-3-carboxamide] |  |  | 0.01 to 0.1 | 0.01 to 0.1
10 | O=C(NCC1(O)CCCC(F)(F)C1)c1cn(CC2CCCO2)c2cccc(Cl)c12 (stereo not shown) [Compound 139, 4-chloro-N-((3,3-difluoro-1-hydroxycyclohexyl)methyl)-1-((tetrahydrofuran-2-yl)methyl)-1H-indole-3-carboxamide] |  |  | 0.01 to 0.1 | 0.01 to 0.1
11 | O=C(NCC1CCC(F)(F)CC1)c1cn(CCN2CCCCC2)c2cccc(Cl)c12 [Compound 193, 4-chloro-N-((4,4-difluorocyclohexyl)methyl)-1-(2-(piperidin-1-yl)ethyl)-1H-indole-3-carboxamide] |  |  | 0.01 to 0.1 | 0.01 to 0.1
12 | O=C(NCC1CCC(F)(F)CC1)c1cn(C2CCNC2)c2cccc(Cl)c12 (stereo not shown) [Compound 121, 4-chloro-N-((4,4-difluorocyclohexyl)methyl)-1-(pyrrolidin-3-yl)-1H-indole-3-carboxamide] |  |  | 0.01 to 0.1 | 0.01 to 0.1
13 | O=C(NCC(c1ccccc1)C1CCCC1)c1cn(C2COC2)c2cccc(Cl)c12 (stereo not shown) [Compound 70, 4-Chloro-1-oxetan-3-yl-1H-indole-3-carboxylic acid (2-cyclopentyl-2-phenyl-ethyl)-amide] |  |  | 0.01 to 0.1 | 0.101 to 0.5
14 | O=C(NCC1CCC(F)(F)CC1)c1cn(C2CN(C3CC3)C2)c2cccc(Cl)c12 [Compound 171, 4-chloro-1-(1-cyclopropylazetidin-3-yl)-N-((4,4-difluorocyclohexyl)methyl)-1H-indole-3-carboxamide] |  |  | 0.101 to 0.5 | 0.5 to 0.999
15 | CC1CC(F)(F)CC(O)(CNC(=O)c2cn(C3COC3)c3cccc(Cl)c23)C1 (stereo not shown) [Compound 89, 4-chloro-N-((3,3-difluoro-1-hydroxy-5-methylcyclohexyl)methyl)-1-(oxetan-3-yl)-1H-indole-3-carboxamide] |  |  | 0.101 to 0.5 | 0.5 to 0.999
16 | O=C(NCC1(O)CCCC(F)(F)C1)c1cn(CCN2CCCC2)c2cccc(Cl)c12 (stereo not shown) [Compound 178, 4-chloro-N-((3,3-difluoro-1-hydroxycyclohexyl)methyl)-1-(2-(pyrrolidin-1-yl)ethyl)-1H-indole-3-carboxamide] |  |  | 0.01 to 0.1 | 0.01 to 0.1
17 | O=C(NCC1CCC(F)(F)CC1)c1cn(CCN2CCCC2)c2cccc(Cl)c12 [Compound 179, 4-chloro-N-((4,4-difluorocyclohexyl)methyl)-1-(2-(pyrrolidin-1-yl)ethyl)-1H-indole-3-carboxamide] |  |  | 0.101 to 0.5 | 0.101 to 0.5
18 | CN1CC(n2cc(C(=O)NCC3CCC(F)(F)CC3)c3c(Cl)cccc32)C1 [Compound 119, 4-chloro-N-((4,4-difluorocyclohexyl)methyl)-1-(1-methylazetidin-3-yl)-1H-indole-3-carboxamide] |  |  | 0.101 to 0.5 | 0.101 to 0.5
19 | O=C(NCC1CCC(F)(F)CC1)c1cn(C[C@@H]2CCN2)c2cccc(Cl)c12 [Compound 122, (S)-1-(azetidin-2-ylmethyl)-4-chloro-N-((4,4-difluorocyclohexyl)methyl)-1H-indole-3-carboxamide] |  |  | 0.01 to 0.1 | 0.01 to 0.1
20 | C[C@H]1CCC[C@@](O)(CNC(=O)c2cn(CC(F)(F)F)c3cccc(Cl)c23)C1 [Compound 2, 4-chloro-N-(((1S,3S)-1-hydroxy-3-methylcyclohexyl)methyl)-1-(2,2,2-trifluoroethyl)-1H-indole-3-carboxamide] |  |  | 0.01 to 0.1 | 0.01 to 0.1
21 | O=C1NC[C@H](Cn2cc(C(=O)NCC3CCC(F)(F)CC3)c3c(Cl)cccc32)O1 [Compound 126, (R)-4-chloro-N-((4,4-difluorocyclohexyl)methyl)-1-((2-oxooxazolidin-5-yl)methyl)-1H-indole-3-carboxamide] |  |  | 0.01 to 0.1 | 0.01 to 0.1
22 | O=C(NCC1(O)CCC(F)(F)CC1)c1cn(CC(F)(F)F)c2cccc(Cl)c12 [Compound 4, 4-chloro-N-((4,4-difluoro-1-hydroxycyclohexyl)methyl)-1-(2,2,2-trifluoroethyl)-1H-indole-3-carboxamide] |  |  | 0.01 to 0.1 | 0.101 to 0.5
23 | O=C(NCC1CCCC(F)(F)C1)c1cn(CCC(F)F)c2cccc(Cl)c12 (stereo not shown) [Compound 9, 4-Chloro-1-(3,3-difluoro-propyl)-1H-indole-3-carboxylic acid (3,3-difluoro-cyclohexylmethyl)-amide] | < 0.01 |  |  | 0.101 to 0.5
24 | CCN(CC)C(=O)Cn1cc(C(=O)NCC2CCC(F)(F)CC2)c2c(Cl)cccc21 [Compound 207, 4-Chloro-1-diethylcarbamoylmethyl-1H-indole-3-carboxylic acid (4,4-difluoro-cyclohexylmethyl)-amide] |  |  | 0.01 to 0.1 | 0.101 to 0.5
25 | CN1C(=O)CC[C@@H]1Cn1cc(C(=O)NCC2CCC(F)(F)CC2)c2c(Cl)cccc21 [Compound 182, (R)-4-chloro-N-((4,4-difluorocyclohexyl)methyl)-1-((1-methyl-5-oxopyrrolidin-2-yl)methyl)-1H-indole-3-carboxamide] |  |  | 0.01 to 0.1 | 0.01 to 0.1
26 | O=C(NCC1(O)CCC(F)(F)CC1)c1cn(C[C@H]2CCCO2)c2cccc(Cl)c12 [Compound 131, (R)-4-chloro-N-((4,4-difluoro-1-hydroxycyclohexyl)methyl)-1-((tetrahydrofuran-2-yl)methyl)-1H-indole-3-carboxamide] |  |  | 0.01 to 0.1 | 0.01 to 0.1
27 | O=C(NCC1(O)CCC(F)(F)CC1)c1cn(C[C@@H]2CCCO2)c2cccc(Cl)c12 [Compound 134, (S)-4-chloro-N-((4,4-difluoro-1-hydroxycyclohexyl)methyl)-1-((tetra hydrofuran-2-yl)methyl)-1H-indole-3-carboxamide] |  |  | 0.01 to 0.1 | 0.101 to 0.5
28 | O=C(NCC1CCC(F)(F)CC1)c1cn(CC2CCCCO2)c2cccc(Cl)c12 (stereo not shown) [Compound 167, 4-chloro-N-((4,4-difluorocyclohexyl)methyl)-1-((tetrahydro-2H-pyran-2-yl)methyl)-1H-indole-3-carboxamide] |  |  | 0.01 to 0.1 | 0.01 to 0.1
29 | O=C(NCC1CCC(F)(F)CC1)c1cn(CCC(F)(F)F)c2cccc(Cl)c12 [Compound 13, 4-chloro-N-((4,4-difluorocyclohexyl)methyl)-1-(3,3,3-trifluoropropyl)-1H-indole-3-carboxamide] |  |  | 0.01 to 0.1 | 0.01 to 0.1
